These results are taken from ChEMBL document CHEMBL4312002, “Impact of hydroxy moieties at the benzo[7]annulene ring system of GluN2B ligands: Design, synthesis and biological evaluation” (Bioorg Med Chem, 2019).

The nature of series [1]: Displacement of [3H]ifenprodil from GluN1A/GluN2B (unknown origin) expressed in mouse L(tk-) cell membranes after 120 mins by solid scintillation counting method. Further details: species or system Homo sapiens.
Series [2] can be described thus: Cytoprotection against glutamate/glycine-induced cytotoxicity against mouse LTK cells expressing GluN1a/GluN2B at 10 uM measured after 30 mins by LDH assay relative to control. It counts as functional.
For series [3], the species on record is Sus scrofa. In words: Displacement of [3H]-(+)-MK-801 from PCP binding site of NMDA receptor in pig brain cortex membranes at 1 uM after 120 mins by solid scintillation counting method relative to control. It counts as cell membranes.
The target of series [4] is Sigma non-opioid intracellular receptor 1 (Cavia porcellus) (UniProt Q60492). The experiment in a line: Displacement of [3H]-(+)-pentazocine from sigma1 receptor in guinea pig brain cortex membranes at 1 uM incubated for 120 mins by solid scintillation counting method relative to control. It counts as cell membranes.
Sequence of Sigma non-opioid intracellular receptor 1 (Cavia porcellus) (Q60492 whole entry): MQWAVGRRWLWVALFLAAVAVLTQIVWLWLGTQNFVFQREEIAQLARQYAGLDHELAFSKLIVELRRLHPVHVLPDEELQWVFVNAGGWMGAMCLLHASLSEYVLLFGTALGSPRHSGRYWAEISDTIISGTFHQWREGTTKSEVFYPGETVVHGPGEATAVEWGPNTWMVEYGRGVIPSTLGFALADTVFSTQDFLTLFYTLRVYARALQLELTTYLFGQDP
Series [5] has as its target T1, Sigma intracellular receptor 2 (Rattus norvegicus, UniProt Q5U3Y7).
T1 sequence (Q5U3Y7 whole entry): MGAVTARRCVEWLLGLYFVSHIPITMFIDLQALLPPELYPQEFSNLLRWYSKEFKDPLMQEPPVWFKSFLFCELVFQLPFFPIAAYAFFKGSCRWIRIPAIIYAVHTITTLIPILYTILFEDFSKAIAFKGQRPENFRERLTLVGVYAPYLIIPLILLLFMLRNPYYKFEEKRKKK
In words: Displacement of [3H]di-o-tolylguanidine from sigma2 receptor in rat liver membranes measured after 120 mins by solid scintillation counting method. It counts as cell membranes.

A short description of series [6]: Cytoprotection against glutamate/glycine-induced cytotoxicity against mouse LTK cells expressing GluN1a/GluN2B preincubated 30 mins followed by glutamate/glycine addition and measured after 6 hrs by LDH assay. It counts as functional, cell-based.
Series [7] is described as follows: Cytoprotection against glutamate/glycine-induced cytotoxicity against mouse LTK cells expressing GluN1a/GluN2B assessed as inhibition of cell growth measured after 12 hrs by LDH assay. It counts as functional, cell-based.
Series [8] addresses Sigma non-opioid intracellular receptor 1 (Cavia porcellus, UniProt Q60492). In words: Displacement of [3H]-(+)-pentazocine from sigma1 receptor in guinea pig brain cortex membranes incubated for 120 mins by solid scintillation counting method. It counts as cell membranes.
Series [9] in a line: Retention time of (2S,3S,4S,5R)-3,4,5-trihydroxy-6-(7-(methyl(3-phenylpropyl)amino)-6,7,8,9-tetrahydro-5H-benzo[7]annulen-5-yloxy)tetrahydro-2H-pyran-2-carboxylic acid metabolite in C57BL/6 mouse liver microsomes at 25 uM by LC-qTOF/MS analysis. It counts as ADME, Microsome.
Series [10] is described as follows: Drug metabolism in C57BL/6 mouse liver microsomes assessed as hydroxylation at aromatic ring at 25 uM incubated for 90 mins in presence of phase 1 cofactor NADPH by LC-qTOF/MS analysis. It counts as ADME, Microsome. The note with it: 1.5 h.
Series [11] can be described thus: Drug metabolism in C57BL/6 mouse liver microsomes assessed as glucuronide metabolite formation at 25 uM incubated for 90 mins in presence of phase 1 and 2 cofactors NADPH and UDPGA by LC-qTOF/MS analysis. It counts as ADME, Microsome. Conditions: 1.5 h.
A short description of series [12]: Drug metabolism in C57BL/6 mouse liver microsomes assessed as hydroxylation at aliphatic ring at 25 uM incubated for 90 mins in presence of phase 1 cofactor NADPH by LC-qTOF/MS analysis. It counts as ADME, Microsome. Conditions: 1.5 h.
A short description of series [13]: Drug metabolism in C57BL/6 mouse liver microsomes assessed as (2S,3S,4S,5R)-3,4,5-trihydroxy-6-(7-(methyl(3-phenylpropyl)amino)-6,7,8,9-tetrahydro-5H-benzo[7]annulen-5-yloxy)tetrahydro-2H-pyran-2-carboxylic acid formation at 25 uM incubated for 90 mins in presence of phase 1 and 2 cofactors NADPH and UDPGA by LC-qTOF/MS analysis. Conditions: 1.5 h. It counts as ADME, Microsome.

Series [14] in a line: Retention time of compound in C57BL/6 mouse liver microsomes at 25 uM by LC-qTOF/MS analysis. It counts as ADME, Microsome.
Series [15] is described as follows: in vitro. Conditions: C57BL/6, mouse, liver microsomes.
Description: Metabolic stability in C57BL/6 mouse liver microsomes assessed as parent compound remaining at 25 uM incubated for 90 mins in presence of NADPH by LC-qTOF/MS analysis
The nature of series [16]: Drug metabolism in C57BL/6 mouse liver microsomes assessed as hydroxylation at aliphatic and aromatic ring at 25 uM incubated for 90 mins in presence of phase 1 cofactor NADPH by LC-qTOF/MS analysis. It counts as ADME, Microsome. Conditions: 1.5 h.

Sequence of Sigma non-opioid intracellular receptor 1 (Q60492 whole entry): as the sequence (Q60492 whole entry) above

Turning to `OC1c2ccccc2CCC(NCCCc2ccccc2)C1O` (mixture of isomers), the Ki in series [1] came out at 2000 nM; in series [5], 630 nM. This compound gave an Activity in [2] of 41%. Moreover, the inhibition was 14% in [3] and 17% in series [4].

Regarding `Oc1ccc2c(c1)CCC(NCCCCc1ccccc1)CC2` (stereo unspecified), the affinity in [1], expressed as Ki, was 21 nM. Also, the IC50 in series [6] is 3000 nM.

Turning to `c1ccc(CCCNC2CCc3ccccc3CC2)cc1`, the affinity in series [1] corresponds to a Ki of 16 nM. Also, the Activity in series [2] is reported as 29%.

Compound `C[C@@H](CN1CCC(Cc2ccccc2)CC1)[C@@H](O)c1ccc(O)cc1` yielded a Ki in [1] of 170 nM. In addition, the IC50 in [6] came out at 13 nM.

As for `CC(C(O)c1ccc(O)cc1)N1CCC(Cc2ccccc2)CC1` (stereo unspecified) [IFENPRODIL], affinity in [1] was put at a Ki of 10 nM.

In [1], `OC(CN1CCC(Cc2ccc(F)cc2)CC1)c1ccc(Cl)cc1` (stereo unspecified) [ELIPRODIL] registered a Ki of 13 nM.

For `COc1ccc2c(c1)CC[C@@H](NCCCc1ccccc1)C[C@H]2O` (racemic), the IC50 in [7] was 12 nM. The compound also had a Ki in [1] of 16 nM.

In the case of `CN(CCCCc1ccccc1)C1CCc2ccccc2C(O)C1` (mixture of isomers), the Ki is 64 nM in series [1], 66 nM in [5] and 33 nM in [8]. In series [2], this compound had an Activity of 10%. This compound also returned an inhibition in [3] of 0%.

For `OC1Cc2ccccc2CCC1NCCCCc1ccccc1` (mixture of isomers), the Ki in series [1] was 270 nM; in [5], 100 nM; in series [8], 430 nM. The same compound had an Activity in [2] of 0%. Further, the inhibition in series [3] is 0%.

Turning to `CN(CCCc1ccccc1)C1CCc2ccccc2C(O[C@@H]2O[C@H](C(=O)O)[C@@H](O)[C@H](O)[C@H]2O)C1` (stereo partly specified), the Retention_time in series [9] is recorded as 4.8 min.

In [2], `OC1CC(NCCCCc2ccccc2)CCc2ccccc21` (mixture of isomers) showed an Activity of 12%. In series [3], this compound yielded an inhibition of 0%. Moreover, the values for the Ki in series [5] and in series [8] were 100 nM and 140 nM, respectively.

Take `CN(CCCc1ccccc1)C1CCc2ccccc2C(O)C1` (mixture of isomers): the Drug metabolism result in series [10], in series [11], in series [12], in series [13] and in [16] was “Metabolite_Detected” throughout. The values for the Ki in [1], in series [5] and in series [8] were 49 nM, 35 nM and 39 nM, respectively. The compound also displayed an inhibition in [3] of 0%. For the same compound, inhibition in [6] was half-maximal at 580 nM (IC50). This compound gave a Retention_time in series [14] of 5.1 min. The compound further registered an amount remaining at 1.5 h, 25 µM in [15] of 17%.

Take `COc1ccc2c(c1)CCC(NCCCc1ccccc1)CC2` (stereo unspecified): the IC50 in series [7] amounted to 29 nM. Further, the Ki in series [1] stood at 10 nM.

Regarding `OC1CC(NCCCc2ccccc2)CCc2ccccc21` (mixture of isomers), the Ki amounted to 77 nM in series [1], 28 nM in [5] and 160 nM in series [8]. In addition, the inhibition in series [3] stood at 0%. For the same compound, the IC50 in series [6] was 1600 nM.

Regarding `OC1Cc2ccccc2CCC1NCCCc1ccccc1` (mixture of isomers), the results for the Ki in [1], in [5] and in series [8] were 380 nM, 100 nM and 1300 nM, respectively. In [2], this compound had an Activity of 22%. Also, the inhibition in series [3] was found to be 0%.

As to `Oc1ccc2c(c1)CCC(NCCCc1ccccc1)CC2` (stereo unspecified), the Ki in [1] stood at 28 nM. Also, in series [6], the IC50 is more than 10000 nM.
